This note sets out measurements from patent publication EP0891773A1, “Use of gamma-linolenic acid for preventing oxydative stress” (priority 1997, dated 1999).

Where two headings read alike, the source gives them in different places.

This assay deals with fibroblastes dermiques humains normaux. The assay can be described thus: Protective effect on normal human dermal fibroblasts under oxidative stress (TBH 10^-4 M, 1 h); cell viability by neutral red uptake. The class given is cell-based. Particulars: for activity at 0.1 µM: 0,1 µM. As to the method:
Mesure de l'effet protecteur de l'acide γ-linolénique sur des fibroblastes dermiques humains normaux soumis à un stress oxydatif:
Des cultures de fibroblastes dermiques humains normaux sont réalisées selon la méthode décrite par Gilchrest B. A. dans J. Gerontol., vol.35, pp. 537-541, 1980.
A J(0) on ensemence des plaques multipuits de type COSTAR à raison de 50000 cellules par puits. Les cellules sont cultivées dans du milieu MEM Eagle (GIBCO) contenant 10% de sérum de veau foetal, 2 mM de L-glutamine, 1% acides aminés non essentiels, 1 mM pyruvate de sodium et 1% d'un mélange antibiotiques/antimicotiques vendu par la société GIBCO.
A J(+1) le milieu de culture est remplacé par du milieu MEM sans sérum de veau foetal contenant ou ne contenant pas (témoin) la substance à tester.
Des solutions d'acides gras essentiels sont préparés dans des solutions à 0.1 % d'albumine humaine. Les solutions mères sont à 2. 10^-3 M , la dilution minimale est à 10^-4 M dans le milieu de culture sans sérum de veau foetal. L'addition de vitamine E à 30 µM final permet d'éviter les problèmes d'autooxydation des acides gras. Les cellules sont traitées 3 jours sans changement de milieu.
Un stress oxydatif est induit à J(+4). Pour cela, le milieu de culture est retiré et les plaques sont rincées avec du tampon phosphate salin (PBS). 50% des puits sont traités par une solution de terbutyl hydroperoxyde (TBH) à 10^-4 M, les 2 autres puits étant laissés en PBS et l'incubation se poursuit pendant une heure dans un incubateur à 37°C en atmosphère contenant 5% de CO2.
Au bout d'une heure, les plaques sont rincées 3 fois au PBS pour enlever toute trace de TBH. Une solution mère de rouge neutre à […] est diluée au 1/40 dans un milieu minimum (MEM de marque GIBCO). La solution diluée est placée 1h au bain marie à 37°C pour une bonne dissolution puis filtrée sur 0.22 µm pour éliminer les cristaux résiduels. La solution ainsi préparée est ajoutée sur les cellules et les plaques sont mises à l'incubateur à 37°C en atmosphère contenant 5% de CO2 pour 3 h. Après incubation les plaques sont vidées de leur milieu et rincées au PBS. Une solution à 0.4% de formaldéhyde et 1% de chlorure de calcium dans de l'eau est ajoutée dans chaque puits pour une durée de 1 minute. On remplace alors cette solution par une solution à 49% d'éthanol pur dans l'eau et 1% d'acide acétique glacial. On laisse la coloration se développer 30 mn à température ambiante et on lit les plaques au spectrophotomètre à 540 nm.
Pour chaque condition (traité ou témoin), le calcul est effectué de la manière suivante :
Proportion de cellules stressées : rapport de la moyenne des densités optiques mesurées pour les puits traités sur la moyenne des densités optiques mesurées pour les puits non traités.
Pourcentage de résistance : Proportion de cellules stressées dans l'essai sur proportion de cellules stressées dans le témoin x 100
Par ce calcul, le témoin est considéré à 100 % de protection contre le stress oxydatif et les produits présentent un effet protecteur supérieur ou inférieur au témoin.

Where [1] appears, read: Fibroblast, table a, comparison of essential fatty acids, 10 µM, 3 days pretreatment, then TBH 10^-4 M 1 h, control = 100, read-out: Pourcentage de résistance.
The mark [2] stands for this setting: Fibroblast, table c, comparison with known antioxidants, 10 µM, control = 100, read-out: Pourcentage de résistance.
The mark [3] stands for this setting: Fibroblast, table c, comparison with known antioxidants, 100 µM, control = 100, read-out: Pourcentage de résistance.
The mark [4] stands for this setting: Fibroblast, table c, comparison with known antioxidants, 1 mM, control = 100, read-out: Pourcentage de résistance.

Turning to `CCCCC/C=C\C/C=C\CCCCCCCC(=O)O` [Acide Linoléique], the activity at 10 µM under setting [1] worked out at 100%.

In the case of `CCCCC/C=C\C/C=C\C/C=C\CCCCC(=O)O` [Acide γ-Linolénique, acide γ-linolénique], for the setting “Fibroblast, table b, dose effect, 0,01 µM, control = 100, read-out: Pourcentage de résistance”, the activity at 0.01 µM was 123%. The activity at 0.1 µM is 130% (Fibroblast, table b, dose effect, control = 100, read-out: Pourcentage de résistance) and 112% (Fibroblast, table c, comparison with known antioxidants, control = 100, read-out: Pourcentage de résistance). The activity at 1 µM (Fibroblast, table b, dose effect, 1 µM, control = 100, read-out: Pourcentage de résistance) is 119%. Further, the activity at 10 µM (Fibroblast, table b, dose effect, 10 µM, control = 100, read-out: Pourcentage de résistance) is 121% and the activity at 10 µM under setting [1] was found to be 124%. Also, the activity at 100 µM (Fibroblast, table b, dose effect, 100 µM, control = 100, read-out: Pourcentage de résistance) was 95%. In addition, under “concentration of maximum effect in the dose-effect test (table b)”, the effet maximum is recorded as 0,1 µM. Under “conclusion in words on table a (10 µM), only this fatty acid among those tested”, the “résistance au stress oxydatif” value is given as “augmente la résistance au stress oxydatif”. Besides, the “effet protecteur du stress oxydatif” value (conclusion in words on table c, versus reference antioxidants) is “comparable à celui de molécules reconnues comme anti-oxydants de référence”.

Regarding `N[C@@H](CCC(=O)N[C@@H](CS)C(=O)NCC(=O)O)C(=O)O` [Glutathion], under setting [2], the activity at 10 µM was found to be 95%. Also, under setting [3], the activity at 100 µM was found to be 93%. The activity at 1000 µM under setting [4] came to 100%.

As to `CC(=O)N[C@@H](CS)C(=O)O` [N-Acétyl cystéine], the activity at 10 µM under setting [2] came to 94%. In addition, under setting [3], the activity at 100 µM amounted to 103%. Moreover, the activity at 1000 µM under setting [4] worked out at 107%.

Turning to `S=C(S)N1CCCC1` [Pyrrolidine dithiocarbamate], under “Fibroblast, table c, comparison with known antioxidants, 20 µM, control = 100, read-out: Pourcentage de résistance”, the activity at 20 µM came to 97%. Also, the activity at 100 µM under setting [3] was determined as 112%.

With Vitamine E, the “Pourcentage de résistance” value runs as follows: (table c, comparison with known antioxidants, 10 µM, control = 100) 112%; (table c, comparison with known antioxidants, 100 µM, control = 100) 107%; (table c, comparison with known antioxidants, 1 mM, control = 100) 111%.
